Values quoted from earlier work, collected in patent publication US12203859B2, “Device for detecting contamination with photosynthesis inhibitor and method for detecting contamination with photosynthesis inhibitor” (National Institute for Environmental Studies, priority 2019, dated 2025).

Tested on: marine phytoplankton
Details: pesticides that directly inhibit photosynthesis of plants

In the case of `CN(C)C(=O)Nc1ccc(Cl)c(Cl)c1` [Diuron], the “fluorescence quantum efficiency of marine phytoplankton” value is listed as “decreases”.
In the case of `CSc1nc(NC2CC2)nc(NC(C)(C)C)n1` [Irgarol], the “fluorescence quantum efficiency of marine phytoplankton” value is given as “decreases”.
